The values below come from US10000558B2, “Use of annexin A3 as a diagnostic and prognostic biomarker and therapeutic target for treating hepatocellular carcinoma” (The University of Hong Kong, priority 2013, dated 2018).

“And” between values parts separate entries of the source, which are not always exact repeats. Identical values can stand only once.

For one assay, the system named is Huh7 cells. In words: Apoptosis analysis by Annexin V-PI flow cytometry. The format is cell-based, human. Conditions: for STS-induced apoptosis: STS 1 μg/ml for 6 hrs; for Cisplatin-induced apoptosis: cisplatin 5 μg/ml for 48 hrs; for 5-fluorouracil-induced apoptosis: 5-fluorouracil 150 µg/ml for 48 hrs. On the procedure: Cells were treated with cisplatin (5 μg/ml) or 5-fluorouracil ([…]) for 48 hrs, apoptosis inducer staurosporin (STS, 1 μg/ml) for 6 hrs. Cells would then be subsequently harvested and stained in binding buffer, propidium iodide (PI) and FITC-conjugated Annexin V as provided by the Annexin-V FLUOS Staining Kit (Roche Diagnostics) according to manufacturer's instructions. Analysis was determined by a FACS Canto II (BD Biosciences) and FlowJo software (Tree Star, Inc.).
The effect of ANXA3 on resistance to apoptosis and chemotherapy was investigated by Annexin V-PI staining followed by flow cytometry analysis. To investigate whether ANXA3 expression in HCC confers enhanced resistance to chemotherapy and apoptosis, Huh7 cells with or without ANXA3 repressed were treated with the apoptosis inducer staurosporin (STS) or chemotherapeutic reagents, 5-fluorouracil (5-FU) or cisplatin, in vitro and analyzed for apoptotic/necrotic cells by flow cytometry. […] Upon stable ANXA3 knockdown in Huh7 and PLC8024 HCC cells, HCC cells became less resistant to the apoptosis inducer, staurosporin (STS) and chemotherapy, 5-fluorouracil and cisplatin, resulting in a significant increase in apoptotic/necrotic cells.

Assay [1] concerns HCC Huh7 cells or HCC primary cells. Nature of the assay: Subcutaneous HCC xenograft treatment in NOD-SCID mice. The format is in vivo. On the procedure: Immunodeficient NOD-SCID mice transplanted subcutaneously with HCC Huh7 cells or HCC primary cells were injected with PBS, mouse IgG control ANXA3 mAb, cisplatin or a combination of ANXA3 mAb and cisplatin over a period of 3 weeks (FIGS. 4A, B and C).

Where [2] appears, read: Huh7 ANXA3 repressed clones (two clones, values not assigned).

For the compound `CN[C@@H]1C[C@H]2O[C@@](C)([C@@H]1OC)n1c3ccccc3c3c4c(c5c6ccccc6n2c5c31)C(=O)NC4` [STS, staurosporin], the STS-induced apoptosis is 53.58% and 52.3% with Huh7 cells (setting [2]); 43.72% with Huh7 cells (Huh7 control (NTC) cells).
Regarding `N.N.[Cl][Pt][Cl]` [cisplatin, reference compound], the Cisplatin-induced apoptosis with Huh7 cells (setting [2]) is 38.4% and 41.1%; in the assay with Huh7 cells (Huh7 control (NTC) cells) it was 26.73%. Also, the “tumor formation after serial transplantation of residual tumor into secondary mouse recipients” value in assay [1] (FIG. 4D) was “resulted in tumor formation and recurrence”. Besides, the “tumor growth / tumor volume” value in assay [1] (NOD-SCID mice, subcutaneous transplant, injections over 3 weeks, FIG. 4A, B) is reported as “marked reduction in tumor volume”. For the same compound, the “CD133+ liver CSC subset in tumor” value in assay [1] (flow cytometric analysis of residual tumors, FIG. 4C) is “enriched”.
As to `O=c1[nH]cc(F)c(=O)[nH]1` [5-fluorouracil], the 5-fluorouracil-induced apoptosis in the assay on Huh7 cells (setting [2]) is 39.4% and 55.51%; with Huh7 cells (Huh7 control (NTC) cells), 30.1%.
